IC50 data for 20 molecules are collected here from patent US20260258025A1, “INHIBITORS OF TDP-43 AND TAU AGGREGATION” (Aquinnah Pharmaceuticals, inc., priority 2023, published 2026).

The term IC50 denotes the midpoint of a concentration-inhibition curve.

In this test the test system is TDP-43 aggregation. Put plainly: TDP-43 aggregation assay in SY5Y TDP-43WT cells (high content imaging). It counts as cell-based. The settings on record: Homo sapiens, tetracycline induction 24 hrs, 1 hour compound pre-treatment, sodium arsenite 23 hrs, 8-point dose curve, percentage of cells with TDP-43 aggregates, read-out: IC50, Inhibition of TDP-43 Aggregation. In outline: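 Tetracycline-inducible eGFP-tagged wild-type human TDP-43 in SH-SY5Y cells, induced 24 h ([…]), compound pre-treated 1 h, then sodium arsenite […] for 23 h. Fixed cells imaged; percentage of DAPI-counted cells with aggregates gives IC50 from 8-point curves.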
As to `Cc1cc(-c2ccc(C3CCN(C4CCOCC4)CC3)c(Cl)c2)sc1C(=O)N1CC[C@H](N)C1` [Compound 287, (S)-(3-aminopyrrolidin-1-yl)(5-(3-chloro-4-(1-(tetrahydro-2H-pyran-4-yl)piperidin-4-yl)phenyl)-3-methylthiophen-2-yl)methanone], the IC50 was less than 0.5 µM.
The value for `COCCCN1CCC(c2ccc(-c3cc(Cl)c(C(=O)N4CC[C@H](N)C4)s3)cc2F)CC1` [Compound 268, (S)-(3-aminopyrrolidin-1-yl)(3-chloro-5-(3-fluoro-4-(1-(3-methoxypropyl)piperidin-4-yl)phenyl)thiophen-2-yl)methanone] was less than 0.5 µM; that for `COCCN1CCC(c2ccc(-c3cc(Cl)c(C(=O)N4CC[C@H](N)C4)s3)cc2F)CC1` [Compound 283, (S)-(3-aminopyrrolidin-1-yl)(3-chloro-5-(3-fluoro-4-(1-(2-methoxyethyl)piperidin-4-yl)phenyl)thiophen-2-yl)methanone] was less than 0.5 µM; that for `Cc1cc(-c2ccc(C3(N(C)C)CCC3)cc2)sc1C(=O)N1CC[C@H](N)C1` [Compound 187, (S)-(3-aminopyrrolidin-1-yl)(5-(4-(1-(dimethylamino)cyclobutyl)phenyl)-3-methylthiophen-2-yl)methanone] was 0.5 to 1 µM.
The result for `CCCc1ccc(-c2cc(C)c(C(=O)N3CC[C@H](N)C3)s2)cc1` [Compound 227] reads 2 to 6 µM; that for `N[C@H]1CCN(C(=O)c2sc(-c3ccc(C4CCN(C5CCOCC5)CC4)cc3)cc2Cl)C1` [Compound 294, (S)-(3-aminopyrrolidin-1-yl)(3-chloro-5-(4-(1-(tetrahydro-2H-pyran-4-yl)piperidin-4-yl)phenyl)thiophen-2-yl)methanone], less than 0.5 µM; that for `CC(C)N1CCC(c2ccc(-c3cc(Cl)c(C(=O)N4CC[C@H](N)C4)s3)cc2F)CC1` [Compound 284, (S)-(3-aminopyrrolidin-1-yl)(3-chloro-5-(3-fluoro-4-(1-isopropylpiperidin-4-yl)phenyl)thiophen-2-yl)methanone], less than 0.5 µM.
`Cc1cc(-c2ccc(C3CCCC3)cc2)sc1C(=O)N1CC[C@H](N)C1` [Compound 241]: the IC50 is 6 to 10 µM.
The value for `Cc1cc(-c2ccc(C3CCN(C(C)C)CC3)c(F)c2)sc1C(=O)N1CC[C@H](N)C1` [Compound 282, (S)-(3-aminopyrrolidin-1-yl)(5-(3-fluoro-4-(1-isopropylpiperidin-4-yl)phenyl)-3-methylthiophen-2-yl)methanone] was less than 0.5 µM; that for `Cc1cc(-c2ccc3ccccc3c2)sc1C(=O)N1CC[C@H](N)C1` [Compound 246] was 6 to 10 µM; that for `COc1cc(-c2ccc(C3CCN(C4CCOCC4)CC3)c(Cl)c2)sc1C(=O)N1CC[C@H](N)C1` [Compound 272, (S)-(3-aminopyrrolidin-1-yl)(5-(3-chloro-4-(1-(tetrahydro-2H-pyran-4-yl)piperidin-4-yl)phenyl)-3-methoxythiophen-2-yl)methanone] was 1 to 2 µM.
The result for `Cc1cc(-c2ccc3c(c2)CCCC3)sc1C(=O)N1CC[C@H](N)C1` [Compound 247] reads 6 to 10 µM; that for `CCc1ccc(-c2cc(C)c(C(=O)N3CC[C@H](N)C3)s2)cc1C` [Compound 220], 6 to 10 µM.
The result for `Cc1cc(-c2ccc(N3CCOCC3)cc2)sc1C(=O)N1CC[C@H](N)C1` [Compound 239] reads 0.5 to 1 µM; that for `Cc1cc(-c2ccc(C3CCNCC3)cc2)sc1C(=O)N1CC[C@H](N)C1` [Compound 205, (S)-(3-aminopyrrolidin-1-yl){3-methyl-5-[4-(piperidin-4-yl)phenyl]thiophen-2-yl}methanone], 0.5 to 1 µM.
As for `Cc1cc(-c2ccc(COC3CCCCC3)cc2)sc1C(=O)N1CC[C@H](N)C1` [Compound 203, (S)-(3-aminopyrrolidin-1-yl){5-[4-(cyclohexyloxymethyl)phenyl]-3-methylthiophen-2-yl}methanone], the IC50 is 2 to 6 µM.
The result for `Cc1cc(-c2ccc(C3CCN(C4CCOC4)CC3)c(F)c2)sc1C(=O)N1CC[C@H](N)C1` (stereo partly drawn) [Compound 274, ((S)-3-aminopyrrolidin-1-yl)(5-(3-fluoro-4-(1-(tetrahydrofuran-3-yl)piperidin-4-yl)phenyl)-3-methylthiophen-2-yl)methanone] reads less than 0.5 µM.
Take `CCCc1cc(-c2ccc(C3CCN(C4CCOCC4)CC3)cc2)sc1C(=O)N1CC[C@H](N)C1` [Compound 285, (S)-(3-aminopyrrolidin-1-yl)(3-propyl-5-(4-(1-(tetrahydro-2H-pyran-4-yl)piperidin-4-yl)phenyl)thiophen-2-yl)methanone]: the IC50 is 1 to 2 µM.
The value for `N[C@H]1CCN(C(=O)c2sc(-c3ccc(C4CCN(C5CCCC5)CC4)c(F)c3)cc2Cl)C1` [Compound 270, (S)-(3-aminopyrrolidin-1-yl)(3-chloro-5-(4-(1-cyclopentylpiperidin-4-yl)-3-fluorophenyl)thiophen-2-yl)methanone] was less than 0.5 µM; that for `Cc1cc(-c2ccc(C3CCN(C4CCNCC4)CC3)cc2)sc1C(=O)N1CC[C@H](N)C1` [Compound 177, (S)-(5-(4-([1,4′-bipiperidin]-4-yl)phenyl)-3-methylthiophen-2-yl)(3-aminopyrrolidin-1-yl)methanone] was 0.5 to 1 µM.
